# Data published in US20250241310A1, “METHODS AND COMPOSITION FOR CONTROLLING PESTS” (UPL CORPORATION LIMITED, priority 2021, published 2025).
# What was measured:
# Format in all cases: in vivo
# [1] = test system: corn rootworm (Diabrotica virgifera virgifera); experiment: Field trial, seed treatment, efficacy against corn rootworm (% control and root damage index); conditions: for Damage Index: scale 1-6, corn roots
# Experimental: Trials were carried out in field to assess efficacy of flupyrimin against corn rootworm (Diabrotica virgifera virgifera). Seeds were treated with flupyrimin before sowing. Evaluation was done to check % control of said insects at different dosage. Soil Texture=clay loam, pH=6.89, OM %=3.29.
# Further, the damage index (Scale 1-6) at different concentrations was evaluated.
# Assessment of the amount of damage by larval feeding of D. virgifera on corn roots were made by digging out the root system taking a diameter of approximately 25 cm to a depth of 15 cm. The root systems were then washed so that all crown roots were fairly clean. Damage on the root systems was assessed on 10 plants per plot (40 plants per treatment) using a scale as the following: • 1.0=no feeding damage; • 1.5=visible feeding scars present (not illustrated, but similar to a rating of two); • 2.0=up to three roots pruned slightly; • 2.5=more than three roots pruned, but none chewed to within 4 cm of plant; • 3.0=one to three roots chewed to within 4 cm of plant; • 3.5=more than three roots chewed to within 4 cm of plant; • 4.0=one entire node or equivalent number of roots destroyed • 4.5=about 1.5 nodes destroyed • 5.0=two nodes destroyed • 5.5=about 2.5 nodes destroyed • 6.0=three or more nodes completely destroyed (not illustrated, but similar to a rating of five)
# [2] = test system: seed corn maggot (Delia platura); experiment: Field trial, seed treatment, pest severity of seed corn maggot
# Experimental: Trials were carried out in field to assess efficacy of flupyrimin against seed corn maggot (Delia platura). Seeds were treated with flupyrimin before sowing. Evaluation was done to evaluate pest severity of said insects at different dosage. Soil Texture=fine sandy loam, pH=7, OM %=0.8.
# [3] = test system: Corn leafhopper (Dalbulus maidis); experiment: Field trial, % control of adult corn leafhopper per plant
# Experimental: Trials were carried out in field to assess efficacy of flupyrimin against Corn leafhopper (Dalbulus maidis). Evaluation was done to check % control of adult insects per plant at different dosage at 3 days after emergence and 7 days after emergence.
# [4] = test system: fall army worm (Spodoptera frugiperda); experiment: Field trial in corn plantation, % control of fall army worm, flupyrimin alone
# Experimental: Trials were carried out in the field to assess efficacy of flupyrimin against fall army worm (Spodoptera frugiperda) in corn plantation. Evaluation was done to check % control of said insects at different dosage for 3, 7, 10, 14 DAA for 1st application and 3, 7, 10, 14, 21, 28, 35, and 42 DAA for 2nd application. The rate of application was 500 lit/ha.
smiles,measurement,setting,value
"O=C(/N=c1\ccccn1Cc1ccc(Cl)nc1)C(F)(F)F [Flupyrimin, N-[(E)-1-(6-chloro-3-pyridinylmethyl)pyridin-2 (1H)-ylidene]-2,2,2-trifluoroacetamide]",Damage Index,[1]; 100 g/100 kg of seeds,2.3
same,Damage Index,[1]; 200 g/100 kg of seeds,1.8
same,Damage Index,[1]; 300 g/100 kg of seeds,1.1
same,Damage Index,[1]; 400 g/100 kg of seeds,1
same,Damage Index,[1]; 500 g/100 kg of seeds,1
same,% Control,[1]; seed treatment 100 g/100 kg of seeds,49.39%
same,% Control,[1]; seed treatment 200 g/100 kg of seeds,70.4%
same,% Control,[1]; seed treatment 300 g/100 kg of seeds,96.38%
same,% Control,[1]; seed treatment 400 g/100 kg of seeds,99.36%
same,% Control,[1]; seed treatment 500 g/100 kg of seeds,100%
same,insect control against corn rootworm (in words),[1]; summary of Table 1,good insect control
same,reduction of root damage (in words),"[1]; summary of Table 2, different concentrations",efficacious in reducing the damage
same,Pest severity,"[2]; 100 g/100 kg of seeds, 14 DP",0.2
same,Pest severity,"[2]; 100 g/100 kg of seeds, 28 DP",4.3
same,Pest severity,"[2]; 100 g/100 kg of seeds, 35 DP",4.8
same,Pest severity,"[2]; 100 g/100 kg of seeds, 42 DP",5.9
same,Pest severity,"[2]; 200 g/100 kg of seeds, 14 DP",0
same,Pest severity,"[2]; 200 g/100 kg of seeds, 28 DP",0.7
same,Pest severity,"[2]; 200 g/100 kg of seeds, 35 DP",0.9
same,Pest severity,"[2]; 200 g/100 kg of seeds, 42 DP",1.8
same,Pest severity,"[2]; 300 g/100 kg of seeds, 14 DP",0
same,Pest severity,"[2]; 300 g/100 kg of seeds, 28 DP",0.3
same,Pest severity,"[2]; 300 g/100 kg of seeds, 35 DP",0.5
same,Pest severity,"[2]; 300 g/100 kg of seeds, 42 DP",0.9
same,Pest severity,"[2]; 400 g/100 kg of seeds, 14 DP",0
same,Pest severity,"[2]; 400 g/100 kg of seeds, 28 DP",0.3
same,Pest severity,"[2]; 400 g/100 kg of seeds, 35 DP",0.5
same,Pest severity,"[2]; 400 g/100 kg of seeds, 42 DP",1.1
same,Pest severity,"[2]; 500 g/100 kg of seeds, 14 DP",0
same,Pest severity,"[2]; 500 g/100 kg of seeds, 28 DP",0
same,Pest severity,"[2]; 500 g/100 kg of seeds, 35 DP",0
same,Pest severity,"[2]; 500 g/100 kg of seeds, 42 DP",0.3
same,efficacy against seed corn maggot (in words),[2]; summary of Table 3,effective
same,% Control,"[3]; 100 g ai/100 kg, rate 0.2 Kg-L/ha, 3 DAE",65%
same,% Control,"[3]; 100 g ai/100 kg, rate 0.2 Kg-L/ha, 7 DAE",50%
same,% Control,"[3]; 200 g ai/100 kg, rate 0.4 Kg-L/ha, 3 DAE",50.91%
same,% Control,"[3]; 200 g ai/100 kg, rate 0.4 Kg-L/ha, 7 DAE",45.83%
same,% Control,"[3]; 300 g ai/100 kg, rate 0.6 Kg-L/ha, 3 DAE",86.93%
same,% Control,"[3]; 300 g ai/100 kg, rate 0.6 Kg-L/ha, 7 DAE",47.02%
same,% Control,"[3]; 500 g ai/100 kg, rate 1.0 Kg-L/ha, 3 DAE",80%
same,% Control,"[3]; 500 g ai/100 kg, rate 1.0 Kg-L/ha, 7 DAE",63.69%
same,control of corn leafhopper (in words),[3]; summary of Table 4,good control
same,% Control,"[4]; post 1st application, 150 g a.i./ha, 3 DAA",27.8%
same,% Control,"[4]; post 1st application, 150 g a.i./ha, 7 DAA",29.1%
same,% Control,"[4]; post 1st application, 150 g a.i./ha, 10 DAA",28.1%
same,% Control,"[4]; post 1st application, 150 g a.i./ha, 14 DAA",24.4%
same,% Control,"[4]; post 1st application, 200 g a.i./ha, 3 DAA",32.8%
same,% Control,"[4]; post 1st application, 200 g a.i./ha, 7 DAA",34.1%
same,% Control,"[4]; post 1st application, 200 g a.i./ha, 10 DAA",33.7%
same,% Control,"[4]; post 1st application, 200 g a.i./ha, 14 DAA",29.5%
same,% Control,"[4]; post 1st application, 250 g a.i./ha, 3 DAA",38.1%
same,% Control,"[4]; post 1st application, 250 g a.i./ha, 7 DAA",40.1%
same,% Control,"[4]; post 1st application, 250 g a.i./ha, 10 DAA",36.7%
same,% Control,"[4]; post 1st application, 250 g a.i./ha, 14 DAA",32.9%
same,% Control,"[4]; post 2nd application, 150 g a.i./ha, 3 DAA",28.3%
same,% Control,"[4]; post 2nd application, 150 g a.i./ha, 7 DAA",30.4%
same,% Control,"[4]; post 2nd application, 150 g a.i./ha, 10 DAA",31.8%
same,% Control,"[4]; post 2nd application, 150 g a.i./ha, 14 DAA",32.6%
same,% Control,"[4]; post 2nd application, 150 g a.i./ha, 21 DAA",29.9%
same,% Control,"[4]; post 2nd application, 150 g a.i./ha, 28 DAA",28.9%
same,% Control,"[4]; post 2nd application, 150 g a.i./ha, 35 DAA",27.3%
same,% Control,"[4]; post 2nd application, 150 g a.i./ha, 42 DAA",27.1%
same,% Control,"[4]; post 2nd application, 200 g a.i./ha, 3 DAA",35.6%
same,% Control,"[4]; post 2nd application, 200 g a.i./ha, 7 DAA",35.3%
same,% Control,"[4]; post 2nd application, 200 g a.i./ha, 10 DAA",36.3%
same,% Control,"[4]; post 2nd application, 200 g a.i./ha, 14 DAA",35.3%
same,% Control,"[4]; post 2nd application, 200 g a.i./ha, 21 DAA",34.5%
same,% Control,"[4]; post 2nd application, 200 g a.i./ha, 28 DAA",34.5%
same,% Control,"[4]; post 2nd application, 200 g a.i./ha, 35 DAA",33.7%
same,% Control,"[4]; post 2nd application, 200 g a.i./ha, 42 DAA",33.3%
same,% Control,"[4]; post 2nd application, 250 g a.i./ha, 3 DAA",41.4%
same,% Control,"[4]; post 2nd application, 250 g a.i./ha, 7 DAA",42.7%
same,% Control,"[4]; post 2nd application, 250 g a.i./ha, 10 DAA",43.7%
same,% Control,"[4]; post 2nd application, 250 g a.i./ha, 14 DAA",44.4%
same,% Control,"[4]; post 2nd application, 250 g a.i./ha, 21 DAA",41.4%
same,% Control,"[4]; post 2nd application, 250 g a.i./ha, 28 DAA",38.8%
same,% Control,"[4]; post 2nd application, 250 g a.i./ha, 35 DAA",38.1%
same,% Control,"[4]; post 2nd application, 250 g a.i./ha, 42 DAA",37.9%
